Measured values: patent US20070196395A1, “Immunomodulatory compounds that target and inhibit the py'binding site of tyrosene kinase p56 lck sh2 domain” (priority 2003, published 2007)

Test system: lymphocytes from two different strains of mice (B6 black and balb/c)
Test: Mixed lymphocyte culture, 3H-thymidine uptake
Type: cell-based, mouse
Conditions: 100 μM to 1 μM; biphasic = inhibition at 100 μM, activation at 1 μM
Procedure: 100 mM solutions of compounds were prepared in DMSO.
Mixed lymphocyte culture assays were performed where lymphocytes from two different strains of mice with different histocompatibility antigens were mixed. Due to the difference in the histocompatibility antigens, resting T cells from both strains of mice will undergo blast transformation and propagate. As in any T cell activation process, the activation of Lck is essential. Therefore, the modulation of activation of Lck can be quantified as the downstream modulation in the levels of ^3H-TdR incorporation into DNA. 24 out of the 34 identified compounds were tested […], with 13 compounds showing inhibitory activity at a 100 μM concentration (FIG. 2). Thus, over 50% of the compounds identified by the in vitro assay also show activity in the cellular functional assay at the conditions described herein. These compounds represent the most promising leads for further development. […] Such effects may be associated with the regulatory mechanism of p56 Lck.
Another readout assay that is used to measure biological response is a mixed lymphocyte culture assay in which lymphocytes from two. different strains of mice with different histocompatibility antigens are mixed. Due to the difference in the histocompatibility antigens, resting T cells from both strains of mice undergo blast transformation and propagate. As in any T cell activation process, the activation of p56^lck is essential. Therefore, the modulation of p56^lck activity can be quantified as the downstream modulation in the levels of [^3H]-TdR incorporation into DNA.
Lymph node or splenic lymphocytes are harvested from two different allogeneic strains of mice. Cells (1×10^6) from each strain are mixed in 96 well culture plates containing 200 μl of culture medium in the presence or absence of the compound (0.1˜100 μM) and cultured for 72 h. Six hours before harvest, 0.5 μCi of [^3H]-TdR is added to each well. […] Filters are washed with PBS and then with ethanol and [^3H]-TdR incorporated into DNA is measured using scintillation counting. […]

| Compound | activity profile in mixed lymphocyte culture assay across tested concentrations |
| --- | --- |
| Cc1ccc(NC(=O)c2cccc(NC(=O)c3ccccc3C(=O)O)c2)cc1C [Compound 99] | Biphasic |
| COc1ccc(OC)c(NC(=O)CCNC(=O)Cn2cnc3ccccc3c2=O)c1 [Compound 139] | Biphasic |
| N=C1S/C(=C/c2ccc(-c3cccc(C(=O)O)c3)o2)C(=O)N1c1ccc(F)cc1 [Compound 73] | inhibition |

Biological target: SH2 domain of p56 Lck (Homo sapiens, UniProt P06239)
Test: Inhibition of binding of the CD3ζ ITAM2 peptide to the SH2 domain of p56 Lck (affinity precipitation from Jurkat cell lysate, immunoblot)
Conditions: 100 μM; decreased blot intensity vs control
Procedure: In vitro Assay for the Inhibition of Binding of the CD3ζ ITAM2 Peptide to the SH2 Domain of p56 Lck. […] Inhibition of binding was assayed by affinity precipitation of p56Lck in cell lysates as follows.
Confluent cells were harvested, washed 3 times in chilled, sterile phosphate buffered saline (PBS, BioSource), and were resuspended (5×10^5 /ml) in lysis buffer containing 1% Triton X-100 (Fisher), 1 mM EDTA (Fisher), 0.2 mM sodium orthovanadate, 500 μM AEBSF, 150 nM aprotinin, 1 μM E-64, 0.5 mM EDTA, and 1 μM leupeptin (Protease Cocktail Set I, Calbiochem, San Diego, Calif.). The suspension was sonicated on ice at 60 W power (VibraCell, Sonics and Materials, Danbury, Conn.) for 6×5 second bursts with a 1 minute cooling period between bursts. The resulting lysate was then centrifuged at 20,000 x g (RC-5B, Sorvall, Newtown, Conn.) at 4° C., and the supernatent was used in the assay.
Putative inhibitors to be tested were freshly dissolved in dimethyl sulfoxide (DMSO, cell culture grade, Sigrna) at a concentration of 10 mM before the assay and 10 μl of this was added to 1 ml of cell lysate in 1.5 ml tubes (Sarstedt, Newton, North Carolina). The tubes were placed on an end-over-end rotator (Model C400110, Barnstead/Thermolyne, Dubuque, Iowa) at 4° C. and allowed to rotate for 30 minutes. 20 μl of a 50% slurry of the ITAM-conjugated agarose beads (in PBS; EM Science, Gibbstown, New Jersey) was then added to each tube, and tubes were rotated overnight.
The beads were washed 3 times in 800 μl lysis buffer. Excess lysis buffer was aspirated off, and 10 ml sample loading buffer containing 3% β-mercaptoethanol (Fisher) was added to the beads and, after brief vortexing and soiication, tubes were immersed in a boiling water bath for 2 minutes. They were then centrifuged and the supernatent was loaded onto 8% Tris-HCl gels (GeneMate, ISC Bioexpress, Kaysville, Utah) and run at 100 V for 1.5 hours in a Protean III Mini Gel Unit (Bio-Rad, Hercules, Calif.). The gels were transferred onto polyvinylidene fluoride membrane (Immobilon-P, Millipore, Bedford, Mass.) in a Mini Trans-Blot Electrophoretic Transfer Cell ,(Bio-Rad). The membrane was blocked with PBS (EM Science) solution containing 5% powdered milk (Nestle, Solon, Ohio) for 1 hour; exposed to primary antibody (anti-lck, rabbit polyclonal IgG, Upstate Biotechnologies, Lake Placid, N.Y.) at 1:5000 dilution in 1% w/v powdered milk (Nestle, Solon, Ohio) in PBST [PBS containing 0.5% v/v Tween 20 (Sigma, St. Louis, Mo.)] and washed 3 times for 5 minutes each in PBST. […]

SH2 domain of p56 Lck, sequence (P06239 whole entry, the tested form may be a part): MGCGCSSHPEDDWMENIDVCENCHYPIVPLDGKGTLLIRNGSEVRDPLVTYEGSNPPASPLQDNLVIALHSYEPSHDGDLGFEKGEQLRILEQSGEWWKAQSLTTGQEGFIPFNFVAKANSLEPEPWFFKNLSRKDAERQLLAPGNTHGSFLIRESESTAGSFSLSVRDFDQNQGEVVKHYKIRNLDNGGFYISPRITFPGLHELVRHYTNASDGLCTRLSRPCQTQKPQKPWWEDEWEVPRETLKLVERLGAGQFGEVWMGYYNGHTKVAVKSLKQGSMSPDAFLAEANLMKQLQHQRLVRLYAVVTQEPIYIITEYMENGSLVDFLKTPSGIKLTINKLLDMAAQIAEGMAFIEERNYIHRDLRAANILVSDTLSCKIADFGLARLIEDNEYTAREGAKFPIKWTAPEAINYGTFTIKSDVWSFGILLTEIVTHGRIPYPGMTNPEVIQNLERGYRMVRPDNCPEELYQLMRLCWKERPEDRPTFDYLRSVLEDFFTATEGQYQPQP

| Compound | inhibition of p56 Lck SH2 domain association with phosphotyrosine-containing ITAM2 peptide |
| --- | --- |
| Nc1nnc(SCc2ccc(C(=O)O)cc2)s1 [Compound 239] | significant inhibitory activities |
| O=C(O)CSc1cccnc1Sc1ccc(Cl)cc1 [Compound 262] | significant inhibitory activities |
| O=C(O)CC1S/C(=N\N=C2\CCCc3ccccc32)NC1=O (stereo not shown) [Compound 245] | significant inhibitory activities |
| O=C(O)CSc1nsc(SCC(=O)O)n1 [Compound 232] | significant inhibitory activities |
